{
  "source": "patent US7902346B2",
  "about": "“Fusion protein comprising FK506 binding protein and DNA encoding the same” (Industry Academic Cooperation Foundation, Hallym University, priority 2006, dated 2011)",
  "key": {"[1]": {"system": "human skin primary fibroblast cells", "assay": "Intracellular transduction of fusion protein into skin cells, Western blot analysis", "assay_type": "cell-based", "experimental": "The human skin primary fibroblast cells obtained from Catholic University medical school (Korea) were cultured in Dulbecco's modified Eagle's medium (DMEM) containing 20 mM HEPES/NaOH (pH 7.4), 5 mM NaHCO3, 10% fetal bovine serum (FBS) and antibiotics ([…], 100 U/ml penicillin) at 37° C. under a humidified condition of 95% air and 5% CO2. For the transduction of Pep-1-FK506 binding proteins, skin cells were grown about […] to confluence on a 6-well plate. The culture medium was then replaced with fresh solution containing 10% fetal bovine serum. After skin cells were treated with one of 3 kinds of fusion protein of the FK506 binding protein (Pep-1 peptide is bound C-, N- or C-/N-terminus of FK506 binding protein respectively) for 1 hr, the cells were then treated with trypsin-EDTA and washed with phosphate-buffered saline (PBS). Thereafter the cells were harvested for the preparation of cell extracts to perform Western blot analysis.\nWestern blot analysis was performed to identify intracellular transduction of the fusion protein of FK506 binding protein. The protein was purified in nature form. […]\nThe transduced Pep-1-FK506BP proteins on the polyacrylamide gel were electrophoretically transferred to a nitrocellulose membrane. […]"}, "cyclooxygenase-2": {"system": "cyclooxygenase-2", "assay": "Immunity inhibition effect: lipopolysaccharide-induced cyclooxygenase-2 expression in skin cells, Western blot", "assay_type": "cell-based, human", "experimental": "Thereafter, one of 3 kinds of the fusion protein of FK506BP was added to the each group of cells, respectively. After lipopolysaccharides were added, the expression of cyclooxygenase-2 was monitored via the Western Blot analysis."}, "epidermis of mouse": {"system": "epidermis of mouse", "assay": "Penetration of fusion protein into epidermis of mouse", "details": "in vivo"}},
  "data": [
    {"substance": "Pep-1-FK506BP: Fusion protein of human FK506 binding protein with Pep-1 peptide (SEQ ID NO: 3) and six histidines at the amino terminus; Seq. No. 7", "values": [
      {"measurement": "transduction into skin cells (western blot)", "setting": "[1]; native fusion protein, 0.5-5 μM for 60 min and 5 μM for 10-60 min (FIG. 3)", "result": "transduced into skin cells in a time- and concentration-dependent manner"},
      {"measurement": "time in which the protein was transduced", "setting": "[1]; skin cells treated with 5 μM for 10-60 min (FIG. 3B)", "result": "≤ 10", "unit": "min"},
      {"measurement": "apoptosis induced by lipopolysaccharides", "setting": "cyclooxygenase-2", "result": "inhibited apoptosis"},
      {"measurement": "effect on lipopolysaccharide-induced cyclooxygenase-2 expression, treatment together with FK506", "setting": "cyclooxygenase-2; fusion protein together with FK506, compared with fusion protein alone", "result": "more effective"},
      {"measurement": "expression of cyclooxygenase-2 induced by lipopolysaccharides", "setting": "cyclooxygenase-2; western blot (FIG. 5), 10 μM fusion protein", "result": "inhibited"},
      {"measurement": "penetration into epidermis of mouse", "setting": "epidermis of mouse", "result": "effectively penetrated"}
    ]}
  ]
}
